Measured values from patent publication US20080312246A1, “Substituted Piperazines as Metabotropic Glutamate Receptor Antagonists” (AstraZeneca AB, priority 2005, published 2008).

Target: T1, human mGluR5d (Homo sapiens, UniProt P41594)
T1 construct: expressed in transfected cells; host or cells: GHEK (HEK cells expressing a glutamate transporter) for the IP3 assay
Experiment: Functional assessment of mGluR5 antagonism in cell lines expressing mGluR5d (FLIPR calcium mobilization / IP3 turnover; assay behind the values not specified)
Assay type: cell-based
Conditions: cells expressing human mGluR5d; FLIPR or IP3 assay not specified
Description: The pharmacological properties of the compounds of the invention can be analyzed using standard assays for functional activity. Examples of glutamate receptor assays are well known in the art as described in for example Aramori et al., Neuron 8:757 (1992), Tanabe et al., Neuron 8:169 (1992), Miller et al., J. Neuroscience 15: 6103 (1995), Balazs, et al., J. Neurochemistry 69:151 (1997). The methodology described in these publications is incorporated herein by reference. Conveniently, the compounds of the invention can be studied by means of an assay that measures the mobilization of intracellular calcium, [Ca^2+]i in cells expressing mGluR5.
Intracellular calcium mobilization was measured by detecting changes in fluorescence of cells loaded with the fluorescent indicator fluo-3. Fluorescent signals were measured using the FLIPR system (Molecular Devices). […]
FLIPR experiments were done using a laser setting of 0.800 W and a 0.4 second CCD camera shutter speed. […] After each addition of the compound, the fluorescence signal was sampled 50 times at 1 second intervals followed by 3 samples at 5 second intervals. Responses were measured as the peak height of the response within the sample period. […]
We have validated a secondary functional assay for mGluR5d based on Inositol Phosphate (IP3) turnover. IP3 accumulation is measured as an index of receptor mediated phospholipase C turnover. […]

T1 sequence (P41594 21-942 isoform P41594-3 limits assumed): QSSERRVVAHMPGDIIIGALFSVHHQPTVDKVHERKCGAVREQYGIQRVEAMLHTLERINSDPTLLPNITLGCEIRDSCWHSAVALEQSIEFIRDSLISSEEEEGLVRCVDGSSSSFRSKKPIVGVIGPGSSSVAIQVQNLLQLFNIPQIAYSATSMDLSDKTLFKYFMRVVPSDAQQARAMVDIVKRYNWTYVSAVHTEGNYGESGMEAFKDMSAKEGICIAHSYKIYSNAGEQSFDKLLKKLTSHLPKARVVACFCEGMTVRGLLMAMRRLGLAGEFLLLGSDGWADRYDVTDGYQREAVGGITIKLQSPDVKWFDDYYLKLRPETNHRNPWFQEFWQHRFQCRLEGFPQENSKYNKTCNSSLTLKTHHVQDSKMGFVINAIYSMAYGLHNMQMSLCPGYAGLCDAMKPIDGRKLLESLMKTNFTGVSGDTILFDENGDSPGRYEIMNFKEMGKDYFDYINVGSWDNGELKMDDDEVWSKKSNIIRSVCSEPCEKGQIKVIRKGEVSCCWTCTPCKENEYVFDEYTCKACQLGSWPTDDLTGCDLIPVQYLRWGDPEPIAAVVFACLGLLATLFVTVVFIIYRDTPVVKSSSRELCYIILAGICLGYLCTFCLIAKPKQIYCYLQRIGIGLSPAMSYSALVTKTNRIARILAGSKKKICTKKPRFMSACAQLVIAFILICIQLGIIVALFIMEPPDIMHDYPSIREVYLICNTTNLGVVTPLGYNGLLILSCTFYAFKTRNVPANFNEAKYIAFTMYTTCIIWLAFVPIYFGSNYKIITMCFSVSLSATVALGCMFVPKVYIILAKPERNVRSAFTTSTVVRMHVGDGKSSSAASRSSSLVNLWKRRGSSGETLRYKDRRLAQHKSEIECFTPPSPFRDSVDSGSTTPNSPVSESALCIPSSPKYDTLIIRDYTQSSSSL

**Q.** With `CC(c1cn(-c2cccc(Cl)c2)nn1)N1CCN(c2ccc(C#N)cn2)CC1` (centres unmarked) [Example 15.17, 6-(4-{1-[1-(3-chlorophenyl)-1H-1,2,3-triazol-4-yl]ethyl}piperazin-1-yl)nicotinonitrile] as the compound, how does the IC50 read?
**A.** 159 nM

**Q.** With `CC(c1cn(-c2cccc(Cl)c2)nn1)N1CCN(c2ncccc2C#N)CC1` (centres unmarked) [Example 15.16, 2-(4-{1-[1-(3-chlorophenyl)-1H-1,2,3-triazol-4-yl]ethyl}piperazin-1-yl)nicotinonitrile] as the compound, how does the IC50 read?
**A.** 1080 nM
